{"source": "patent US20250295795A1", "about": "“PEPTIDE” (priority 2021, published 2025)", "assay_type_in_all_cases": "cell-based, human", "key": {"HeLa cells [1]": {"test_system": "HeLa cells", "experiment": "Time course of uptake in Hela cells (continuous live cell confocal microscopy, ROI profile analysis)", "conditions": "1 μM; representative cells", "protocol": "To better understand the mechanism by which tri-Tat A and tri-cTat B enter the cytosol and the nucleus, we investigated the uptake kinetics of the conjugates during the first 15 min after their addition to Hela cells using confocal live cell microscopy. Tri-Tat A (FIG. 3a) or tri-cTat B (FIG. 3b) (1 μM) were added to the cells and images acquired from 1 min to 15 min at 60 sec intervals. The two trimers show distinct uptake patters into Hela cells; to better understand the difference in uptake kinetics, we drew cross sectional profile plots through representative cells treated with tri-Tat A (FIG. 3c) and tri-cTat B (FIG. 3d). […] To investigate whether findings in individual cells also apply to larger populations, we extended the plot profile analysis by designating regions of interest (ROI) corresponding to plasma membrane, cytosol (excluding endosomes), nucleus, and nucleoli along the cross section, using information from brightfield images.^30 Average fluorescence intensities for each ROI, at each time point, in six cells per treatment group were calculated and plotted in FIGS. 3e-3h.\n(§1) HeLa and CHO cells were cultured in DMEM supplemented with 10% FBS and penicillin/streptomycin. For post-wash experiments, Tat conjugate was added to the cells in serum free medium, cells incubated at 37° C. in an atmosphere of 5% CO2, culture medium removed at the desired time point, cells washed and transferred to the microscope for imaging. For time course or pre-wash experiments, cells were transferred to the microscope (incubation chamber at 37° C., 5% CO2) and Tat conjugate added directly to cell medium and cells imaged at desired time points. Co-delivery experiments were conducted by adding peptide trimer immediately followed by cargo into serum free medium. Samples were visualised using a Zeiss LSM 780 inverted confocal microscope fitted with a XLmultiS1 incubation chamber and Plan-Apochromat 63×/1.40 Oil DIC M27 objective. Images were analysed using ImageJ software. Digital adjustments and image processing are consistent throughout the manuscript, unless otherwise stated in the figure legend. Statistical analysis was carried out using GraphPad Prism 7 software and all data used for statistical analysis consists of measurements from distinct cells. Where applicable a parametric, unpaired, two-tailed t-test was used for statistical testing."}, "HeLa cells [2]": {"test_system": "HeLa cells", "experiment": "Membrane integrity / porosity: propidium iodide uptake after trimer treatment", "conditions": "1 μM trimer; 40 μM PI added 20 min after trimer", "protocol": "To assess membrane integrity, 40 μM propidium iodide (PI; a cell impermeable dye), was added to Hela cells 20 min after the addition of the peptide trimer."}, "HeLa cells [3]": {"test_system": "HeLa cells", "experiment": "Live cell confocal microscopy: cellular uptake and intracellular distribution of Tat conjugates in HeLa cells", "protocol": "The cellular uptake and intracellular distribution of Tat-trimers and monomeric controls was investigated by performing live cell confocal microscopy of HeLa (human, cervical cancer) and CHO (Chinese hamster, […]). Following washing, images were acquired using a Zeiss 780 confocal microscope fitted with an incubation chamber (FIG. 2). In accordance with observations that free Tat in the cytosol readily enters the nucleus and strongly binds to nucleoli,^29 homogenous staining of cytoplasm and nucleoli were considered as indicative of cells having accumulated free conjugate, not confined to endosomes, for quantification purposes. […] The uptake and intracellular distribution of tri-Tat A is similar in live Hela and CHO cells (FIG. 2b,d,e).\nFollowing washing, images were acquired using a Zeiss 780 confocal microscope fitted with an incubation chamber. In accordance with observations that free Tat in the cytosol readily enters the nucleus and strongly binds to nucleoli,^29 homogenous staining of cytoplasm and nucleoli were considered as indicative of cells having accumulated free conjugate, not confined to endosomes, for quantification purposes. The results were compared to tri-Tat A (8) and tri-cTat B (17).\nas §1"}}, "note": "Entries after “also recorded” stand apart in the source; their conditions may differ."}
{"smiles": "N=C(N)NCCC[C@@H]1NC(=O)[C@H](CCCNC(=N)N)NC(=O)[C@H](CCCNC(=N)N)NC(=O)[C@H](CCC(N)=O)NC(=O)[C@H](CCCNC(=N)N)NC(=O)[C@H](CCCNC(=N)N)NC(=O)[C@H](CCCCN)NC(=O)[C@H](CCCCN)NC(=O)[C@H](CCCNC(=N)N)NC(=O)[C@H](CCCCn2cc(COCC(COCc3cn(CCCCCCNC(=O)c4ccc5c(c4)C(=O)OC54c5ccc(N)c(S(=O)(=O)O)c5Oc5c4ccc(N)c5S(=O)(=O)O)nn3)(COCc3cn(CCCC[C@@H]4NC(=O)CC[C@@H](C(N)=O)NC(=O)[C@H](CCCNC(=N)N)NC(=O)[C@H](CCCNC(=N)N)NC(=O)[C@H](CCCNC(=N)N)NC(=O)[C@H](CCC(N)=O)NC(=O)[C@H](CCCNC(=N)N)NC(=O)[C@H](CCCNC(=N)N)NC(=O)[C@H](CCCCN)NC(=O)[C@H](CCCCN)NC(=O)[C@H](CCCNC(=N)N)NC4=O)nn3)COCc3cn(CCCC[C@@H]4NC(=O)CC[C@@H](C(N)=O)NC(=O)[C@H](CCCNC(=N)N)NC(=O)[C@H](CCCNC(=N)N)NC(=O)[C@H](CCCNC(=N)N)NC(=O)[C@H](CCC(N)=O)NC(=O)[C@H](CCCNC(=N)N)NC(=O)[C@H](CCCNC(=N)N)NC(=O)[C@H](CCCCN)NC(=O)[C@H](CCCCN)NC(=O)[C@H](CCCNC(=N)N)NC4=O)nn3)nn2)NC(=O)CC[C@@H](C(N)=O)NC1=O", "note": "(stereo partly shown) [tri-cTat B]", "values": [{"measurement": "association with plasma membrane (profile plots)", "setting": "HeLa cells [1]", "value": "little association with plasma membrane"}, {"measurement": "propidium iodide (PI) uptake / pore formation", "setting": "HeLa cells [2]", "value": "does not form pores in the plasma membrane; also recorded: PI negative"}, {"measurement": "transduction efficacy in comparison (average fluorescence intensity per cell, percentage of transduced cells)", "setting": "HeLa cells [3]; 1 μM, 60 min, serum-free", "value": "more effective at cellular transduction in comparison to tri-cTat A"}, {"measurement": "cellular uptake and intracellular distribution", "setting": "HeLa cells [3]; HeLa cells, 1 μM, 60 min, serum-free DMEM, post-wash", "value": "taken up into the cytosol and nucleoli"}, {"measurement": "number of transduced cells", "setting": "HeLa cells [3]; serum free, 1 μM", "value": 61, "unit": "%"}, {"measurement": "number of transduced cells", "setting": "HeLa cells [3]; serum supplemented medium, 1 μM, 60 min", "value": 42, "unit": "%"}, {"measurement": "number of transduced cells", "setting": "HeLa cells [3]; serum supplemented medium, 2 μM, 60 min", "value": 79, "unit": "%"}]}
